Drawing on patent US20230159489A1, “PHD INHIBITOR COMPOUNDS, COMPOSITIONS, AND USE” (Akebia Therapeutics, Inc., priority 2020, published 2023), this text covers IC50 for 12 compounds.

pIC50: −log10 of the molar value. Some results are limits rather than exact numbers.

The target of assay [1] is T1, full-length human PHD1 (Homo sapiens, UniProt Q96KS0).
T1 construct: FLAG (N); purchased Active Motif 81064; host or cells: baculovirus expression system
Put plainly: TR-FRET assay, enzymatic IC50 against PHD1. Further: 15 nM PHD1. In kind it is biochemical. The text has this: PHD1 was expressed in a baculovirus expression system as the full-length protein (NCBI accession number NP_542770.2) with an N-terminal FLAG tag (molecular weight 44.9 kDa).
A general note: Time-resolved FRET reads energy transfer from a long-lived donor to a nearby acceptor.

For assay [2], the target named is T2, full-length human PHD3 (Homo sapiens, UniProt Q9H6Z9).
T2 construct: 6-His (N); purchased Active Motif 81033; host or cells: E. coli
T2 sequence (Q9H6Z9 whole entry): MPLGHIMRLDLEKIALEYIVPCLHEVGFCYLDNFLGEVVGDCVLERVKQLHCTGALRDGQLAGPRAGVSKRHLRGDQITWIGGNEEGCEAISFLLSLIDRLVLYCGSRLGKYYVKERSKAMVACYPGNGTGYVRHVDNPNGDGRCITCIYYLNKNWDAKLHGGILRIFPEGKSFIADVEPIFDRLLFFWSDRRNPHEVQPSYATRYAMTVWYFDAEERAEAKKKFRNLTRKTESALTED
Put plainly: TR-FRET assay, enzymatic IC50 against PHD3. Further: 35 nM PHD3. It is filed as biochemical. The text has this:
Recombinant human PHD3 protein (molecular weight 31.1 kDa) was purchased from Active Motif (Carlsbad, Calif., USA). It was expressed in E. coli as the full-length protein (NCBI accession number NP_071356.1) with an N-terminal 6-His tag (catalog #81033, Lot #24417001).

Assay [3] addresses full-length human PHD2 (Homo sapiens, UniProt Q9GZT9). Put plainly: TR-FRET assay, enzymatic IC50 against PHD2.
Description: Time-resolved fluorescence resonance energy transfer (TR-FRET) assay was utilized to determine the enzymatic half maximal inhibitory concentration (IC50) value of PHD inhibitors against the full-length human prolyl-4-hydroxylase domain (PHD) enzymes, PHD1, PHD2, and PHD3. The TR-FRET assay was developed based on the specific binding of hydroxylated HIF-1α peptide with the complex formed by VHL, EloB and EloC (VBC), to generate a fluorescent signal. Terbium (Tb)-Donor (monoclonal antibody anti-6His-Tb-cryptate Gold) and D2-acceptor (streptavidin [SA]-D2) of TR-FRET are linked to the VBC complex and to HIF-1α peptide, respectively. The VBC complex binds specifically to the HIF-1α peptide when it is hydroxylated, allowing energy transfer from TR-FRET donor to acceptor (FIG. 1). […] The plates were incubated for 30 minutes at room temperature without rotation. […] TR-FRET assays were performed in triplicate at each concentration of compound and the assays were repeated independently three times.

T1 sequence (Q96KS0 whole entry): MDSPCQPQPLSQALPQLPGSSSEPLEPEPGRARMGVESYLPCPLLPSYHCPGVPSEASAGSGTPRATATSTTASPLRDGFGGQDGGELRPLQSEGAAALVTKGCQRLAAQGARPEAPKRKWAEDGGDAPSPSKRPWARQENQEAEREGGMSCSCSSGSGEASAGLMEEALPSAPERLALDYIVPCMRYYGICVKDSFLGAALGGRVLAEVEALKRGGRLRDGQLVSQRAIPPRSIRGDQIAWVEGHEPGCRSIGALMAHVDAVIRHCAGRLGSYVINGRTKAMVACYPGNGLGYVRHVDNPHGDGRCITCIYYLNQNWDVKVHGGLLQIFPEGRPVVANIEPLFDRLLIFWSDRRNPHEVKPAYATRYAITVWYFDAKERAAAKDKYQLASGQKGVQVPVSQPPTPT
full-length human PHD2, sequence (Q9GZT9 whole entry): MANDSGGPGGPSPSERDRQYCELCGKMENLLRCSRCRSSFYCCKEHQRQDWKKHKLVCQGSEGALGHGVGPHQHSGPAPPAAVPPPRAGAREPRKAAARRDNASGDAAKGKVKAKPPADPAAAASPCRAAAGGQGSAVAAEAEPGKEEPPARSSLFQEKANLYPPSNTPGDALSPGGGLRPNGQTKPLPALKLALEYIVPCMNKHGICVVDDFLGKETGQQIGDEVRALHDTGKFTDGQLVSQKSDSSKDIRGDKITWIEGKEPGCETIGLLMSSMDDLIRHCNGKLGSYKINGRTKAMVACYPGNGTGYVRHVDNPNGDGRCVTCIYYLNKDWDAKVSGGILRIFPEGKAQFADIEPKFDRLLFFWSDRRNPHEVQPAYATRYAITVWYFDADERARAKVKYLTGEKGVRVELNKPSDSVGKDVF

For the compound `Cc1nn(-c2ccc(S(=N)(=O)C3CCC3)cn2)c(O)c1-c1ccc(C#N)cc1` (stereo not drawn) [Compound 34, 4-(1-(5-(cyclobutanesulfonimidoyl)pyridin-2-yl)-5-hydroxy-3-methyl-1H-pyrazol-4-yl)benzonitrile], the pIC50 in assay [1], in assay [2] and in assay [3] was > 7.00 in each case.
For the compound `CCc1nn(-c2ccc(S(C)(=O)=O)cn2)c(O)c1-c1ccc(C#N)cc1` [Compound 4, 4-(3-ethyl-5-hydroxy-1-(5-(methylsulfonyl)pyridin-2-yl)-1H-pyrazol-4-yl)benzonitrile], the pIC50 (in general, the IC50 on a negative log10 scale, so that one unit is a factor of ten) was > 7.00 in assay [1], 5.00 to 6.00 in assay [2] and > 7.00 in assay [3].
Take `Cc1nn(-c2ccc(C(=O)NS(C)(=O)=O)cn2)c(O)c1-c1ccc(C#N)cc1` [Compound 27, 6-(4-(4-cyanophenyl)-5-hydroxy-3-methyl-1H-pyrazol-1-yl)-N-(methylsulfonyl)nicotinamide]: the pIC50 in assay [1], in assay [2] and in assay [3] was > 7.00 throughout.
As to `Cc1nn(-c2ccc(S(C)(=O)=O)cn2)c(O)c1-c1ccc(C#N)cc1` [Compound 3, 4-(5-hydroxy-3-methyl-1-(5-(methylsulfonyl)pyridin-2-yl)-1H-pyrazol-4-yl)benzonitrile], the pIC50 in assay [1], in assay [2] and in assay [3] was > 7.00 in each case.
Consider `Cc1nn(-c2ccc(C(=O)C(C)C)cn2)c(O)c1-c1ccc(C#N)cc1` [Compound 10, 4-(5-hydroxy-1-(5-isobutyrylpyridin-2-yl)-3-methyl-1H-pyrazol-4-yl)benzonitrile], for which the pIC50 in assay [1] is > 7.00; in assay [2] it was 6.00 to 7.00; in assay [3] it was > 7.00.
Turning to `Cc1nn(-c2ccc(S(C)(=O)=O)cn2)c(O)c1-c1ccc(C#N)cn1` [Compound 44, 6-(5-hydroxy-3-methyl-1-(5-(methylsulfonyl)pyridin-2-yl)-1H-pyrazol-4-yl)nicotinonitrile], the pIC50 is 6.00 to 7.00 in assay [1], 5.00 to 6.00 in assay [2] and 6.00 to 7.00 in assay [3].
With `Cc1nn(-c2ccc(S(C)(=O)=O)cn2)c(O)c1-c1ccc(Cl)cc1` [Compound 1, 4-(4-chlorophenyl)-3-methyl-1-(5-(methylsulfonyl)pyridin-2-yl)-1H-pyrazol-5-ol], the pIC50 in assay [1] was > 7.00; in assay [2] it was 6.00 to 7.00; in assay [3] it was > 7.00.
Turning to `CS(=O)(=O)c1ccc(-n2nc(C3CC3)c(-c3ccc(C#N)cc3)c2O)nc1` [Compound 5, 4-(3-cyclopropyl-5-hydroxy-1-(5-(methylsulfonyl)pyridin-2-yl)-1H-pyrazol-4-yl) benzonitrile], the pIC50 in assay [1] was 6.00 to 7.00; in assay [2], < 5.00; in assay [3] it was 5.00 to 6.00.
With `Cc1nn(-c2ccc([S@@](=N)(=O)C3CC3)cn2)c(O)c1-c1ccc(C#N)cc1` [Compound 56, (S)-4-(1-(5-(cyclopropanesulfonimidoyl)pyridin-2-yl)-5-hydroxy-3-methyl-1H-pyrazol-4-yl)benzonitrile], the pIC50 in assay [1], in assay [2] and in assay [3] was > 7.00 in each case.
`CCC(=O)Nc1ccc(-n2nc(C)c(-c3ccc(C#N)cc3)c2O)nc1` [Compound 9, N-(6-(4-(4-cyanophenyl)-5-hydroxy-3-methyl-1H-pyrazol-1-yl)pyridin-3-yl)propionamide]: the pIC50 is > 7.00 in assay [1], 6.00 to 7.00 in assay [2] and > 7.00 in assay [3].
For the compound `Cc1nn(-c2ccc(S(N)(=O)=O)cn2)c(O)c1-c1ccc(C#N)cc1` [Compound 11, 6-(4-(4-cyanophenyl)-5-hydroxy-3-methyl-1H-pyrazol-1-yl)pyridine-3-sulfonamide], the negative-log IC50 (pIC50) in assay [1], in assay [2] and in assay [3] was > 7.00 throughout.
Take `Cc1nn(-c2ccc([S+](C)[O-])cn2)c(O)c1-c1ccc(C#N)cc1` (stereo not drawn) [Compound 12, 4-(5-hydroxy-3-methyl-1-(5-(methylsulfinyl)pyridin-2-yl)-1H-pyrazol-4-yl)benzonitrile]: the negative-log IC50 (pIC50) in assay [1], in assay [2] and in assay [3] was > 7.00 each time.
